Assay results from PubChem BioAssay (NCI).
Where “and” joins values, the source holds several entries; their conditions need not be identical. Identical values can stand only once.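 Dose response: 5 concentrations. Exposure: 48 h. Format: 96-well plates. Endpoint: linear interpolation; highest concentration if not reached. Here, GI50 denotes the concentration required for 50% inhibition of growth. TGI is the concentration that stops growth completely.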

Legend:
Experiment in all cases: DTP human tumour cell line panel, 48 h
[1] = tested on: ACHN renal
[2] = tested on: EKVX NSCLC
[3] = tested on: IGROV1 ovarian
[4] = tested on: SK-MEL-2 melanoma
[5] = tested on: SK-MEL-28 melanoma
[6] = tested on: SK-OV-3 ovarian
[7] = tested on: SNB-75 CNS
[8] = tested on: U251 CNS
[9] = tested on: UACC-62 melanoma
[10] = tested on: MCF7 breast

SMILES | TGI [1] [µM] | TGI [2] | TGI [3] [µM] | TGI [4] | TGI [5] | TGI [6] [µM] | TGI [7] | TGI [8] | TGI [9] | GI50 [1] | GI50 [2] | GI50 [10] [µM] | TGI [10] [µM] | GI50 [4] | GI50 [5] | GI50 [6] [µM] | GI50 [7] | GI50 [8] | GI50 [9] | GI50 [3]
NC(=O)/N=C1/CCC2C3CCCC2C13 | > 100 | > 100 µM | > 100 | > 100 µM | > 100 µM | > 100 | > 100 µM | > 100 µM | > 100 µM | – | – | – | – | – | – | – | – | – | – | –
Oc1ccc2ccccc2c1N=Nc1ccsc1 | > 100 | – | > 100 | > 100 µM | > 100 µM | > 100 | > 100 µM | > 100 µM | > 100 µM | – | – | – | – | – | – | – | – | – | – | –
CNC(=O)c1ccccc1Nc1nc(Nc2cc(OC)c(OC)c(OC)c2)ncc1Br | 15.6 | 1.01 µM | – | 0.0499 µM | 2.11 µM | 5.13 | 0.0494 µM | 3.38 µM | 1.64 µM | 0.0209 µM | 0.0308 µM | 0.0374 | 2.78 | 0.0171 µM | 0.0667 µM | 0.0309 | < 0.0124 µM | 0.0426 µM | 0.0255 µM | –
CN(C)CCNC(=O)c1cccc(N(C)C(=O)c2ccccc2)c1[N+](=O)[O-] | > 100 | – | > 100 | > 100 µM | > 100 µM | > 100 | > 100 µM | > 100 µM | > 100 µM | – | – | – | > 100 | – | – | – | – | – | – | –
Cc1ccc(S(=O)(=O)NC2(C=O)CCCC3CCCCC32)cc1 (stereo not drawn) | > 100 | – | > 100 | > 100 µM | > 100 µM | > 100 | > 100 µM | > 100 µM | > 100 µM | – | – | – | – | – | – | – | – | – | – | –
CC12CCC3(OCCO3)C(OC(=O)c3ccccc3)=C1CCC21OCCO1 (stereo not drawn) | > 100 | > 100 µM | > 100 | – | > 100 µM | > 100 | > 100 µM | > 100 µM | > 100 µM | – | – | – | – | – | – | – | – | – | – | –
O=c1[nH]c(=S)[nH]c2c1CN(CCCN1CCOCC1)CN2 | 92 | > 100 µM | > 100 | 39.8 µM | > 100 µM | – | – | > 100 µM | 37.3 µM | – | – | – | > 100 | – | – | – | – | – | – | –
CC(Nc1ccc(S(=O)(=O)N=C(N)N)cc1)c1c2ccccc2nc2ccccc12 (stereo not drawn) | > 100 | > 100 µM | > 100 | 61.9 µM | > 100 µM | 73.6 | 79.7 µM | > 100 µM | > 10 µM | – | – | – | – | – | – | – | – | – | – | –
Oc1ccc(C(c2ccc(O)cc2)c2ccc(O)cc2)cc1 | 90.8 | 46.8 µM | 35.2 | 55 µM | 45 µM | 42 | – | 83.7 µM | 29.8 µM | – | – | – | > 100 | – | – | – | – | – | – | –
O=C(O)CCC(N=Cc1nc(-c2ccccc2)oc1O)C(=O)O (stereo not drawn) | > 100 | > 100 µM | > 100 | > 100 µM | > 100 µM | > 100 | > 100 µM | > 100 µM | > 100 µM | – | – | – | – | – | – | – | – | – | – | –
O=[P+](O)c1ccsc1 | > 100 | > 100 µM | > 100 | – | > 100 µM | > 100 | – | > 100 µM | > 100 µM | – | – | – | – | – | – | – | – | – | – | –
C#CCSc1cc(Cl)c(C)cc1S(=O)(=O)Nc1nc2ccccc2o1 | > 100 | > 100 µM | > 100 | 43.6 µM | > 100 µM | – | > 100 µM | > 100 µM | 61.9 µM | 35.2 µM | 43.4 µM | 49.7 | > 100 | 21.6 µM | 54.7 µM | – | 85.8 µM | 38.5 µM | 25.5 µM | 34.8 µM
COC(=O)C(C(=O)C(=O)Nc1ccc([N+](=O)[O-])cc1[N+](=O)[O-])c1nc2ccc(Cl)cc2[nH]c1=O (stereo not drawn) | > 100 | > 100 µM | > 100 | > 100 µM | > 100 µM | > 100 | > 100 µM | – | > 100 µM | – | – | – | – | – | – | – | – | – | – | –
CC(C)([NH-])CO.CC(C)([NH-])CO.[Cl][Cd][Cl] | > 100 | – | 36.7 | 29.8 µM | 30.1 µM | – | – | 28.8 µM | 25 µM | > 100 µM | – | – | – | 15.6 µM | 16.5 µM | – | – | 15.4 µM | 7.82 µM | 19 µM
c1ccc(CN2COc3c(ccc4c3OCN(Cc3ccccc3)C4)C2)cc1 | > 100 | – | > 100 | > 100 µM | > 100 µM | > 100 | > 100 µM | > 100 µM | 4.24 µM | 0.316 µM | – | 0.515 | > 100 | 3.98 µM | 1.26 µM | 0.639 | 2.09 µM | 0.382 µM | 0.937 µM | 0.802 µM
O=C(Nc1ccc(Cl)c(Cl)c1)Nc1c(Oc2ccc(Cl)c(Cl)c2)ccc(Cl)c1S(=O)(=O)O | – | – | – | – | > 100 µM | – | 4.53 µM | > 100 µM | > 100 µM | – | – | 0.388 | > 100 | – | 4.05 µM | – | 1.51 µM | 3.16 µM | 1.97 µM | –
C[n+]1c2cc(N)ccc2cc2ccc(N)cc21 | – | 2.31 µM [middle of 4 runs] | – | 5 µM [middle of 4 runs] | 4.78 µM [middle of 4 runs] | – | 4.05 µM [middle of 4 runs] | 4.22 µM [middle of 4 runs] | 2.86 µM [middle of 4 runs] | 1 µM [middle of 4 runs] | 0.263 µM and 0.831 µM and 0.261 µM | – | – | 1.47 µM [middle of 4 runs] | 1.96 µM [middle of 4 runs] | – | 1.55 µM [middle of 4 runs] | 733 nM [middle of 4 runs] | 1.26 µM [middle of 4 runs] | 1.46 µM [middle of 4 runs]
O=c1c(Br)cc2nc3ccccc3sc-2c1Br | > 100 | > 100 µM | > 100 | > 100 µM | > 100 µM | > 100 | > 100 µM | > 100 µM | 79.8 µM | – | – | – | – | – | – | – | – | – | – | –
COc1ccc2c(=O)cc(C(Cl)(Cl)Cl)oc2c1 | 13.8 | – | 21.3 | 26.4 µM | 23.2 µM | 31.5 | 15.1 µM | 11.1 µM | 17.5 µM | 0.412 µM | – | 0.262 | 14.6 | 0.488 µM | 0.632 µM | 0.511 | 0.327 µM | 1.14 µM | 0.438 µM | 0.633 µM
Cc1ccc(NC(=O)CC2Sc3ccccc3NC2=O)c(C)c1 (stereo not drawn) | 41 | > 100 µM | > 100 | 18.2 µM | 75.9 µM | 33 | 19.2 µM | 33.1 µM | 48.9 µM | – | – | – | – | – | – | – | – | – | – | –
